From patent US20210393932A1, “DERMAL PATCHES AND GLASS SWABS FOR APPLICATION OF TOPICAL IMMUNOSENSITIZERS” (Squarex, LLC, priority 2020, published 2021)

Legend:
[1] = system: herpes labialis outbreaks; assay: Placebo-controlled Phase 1 clinical trial of SADBE in subjects with frequent herpes labialis outbreaks; assay type: in vivo, human
Experimental: Methods This exploratory, double-blind, randomized placebo-controlled study was conducted between November 2013 and September 2015 at Massachusetts General Hospital. Healthy adults, ages 18 to 69 years, who self-reported having 6 or more episodes of herpes labialis in the previous 12 months received a topical sensitization dose on the arm at the initial visit, and then received a topical treatment dose applied to a lesion during the first 2 herpes labialis episodes occurring at least 2 weeks after the sensitization dose. Participants were randomized 1:1:1 to receive dimethyl sulfoxide alone (placebo), 2.0% SADBE sensitization and 0.5% SADBE treatment doses, or 2.0% SADBE sensitization, 0.2% SADBE treatment doses. The study was approved by Partners Human Research Committee institutional review board, and all participants provided their written informed consent (clinicaltrials.gov identification No. NCT01971385). Results. Fifty-four patients were enrolled into the study; 43 patients had at least 1 form of contact (either in person or by phone) with research staff following the sensitizing dose and were included in the efficacy data analysis. The data analyzed involves 9 males and 34 females.
One planned primary end point was days to the next herpes labialis outbreak after the last treatment dose. […] Thus, we analyzed time to next outbreak after the sensitization dose. Data from patients who never experienced a first outbreak following sensitization were censored on the last available follow-up date and Kaplan-Meier time-to-event curves were estimated and graphed (FIG. 3). The median time to event for the placebo group was 40 days versus more than 122 days for the 2.0% SADBE group, which difference was highly significant (P=0.009).

[2] = Toxicity evaluation (body weight, food consumption, necropsy, histopathology) in Gottingen mini-pig; assay type: in vivo, Gottingen miniswine
Text: The purpose of this nonGLP study was to evaluate the effect of various concentrations of SADBE delivered via dermal patch, for dose site irritation and toxicity endpoints such as body weights, group food consumption, clinical observation, pre-termination clinical pathology, gross and histopathology.
A total of 6 Gottingen miniswine (3 female and 3 male) was used in this nonGLP study. Prior to dosing, the baseline body weights, group food consumption, and Draize scoring (see tables 1 and 2) for erythema and eschar formation and edema at the future dose site were recorded. A dermal patch (1 patch/animal) loaded with 20 microliters of 2, 6, or 18% SADBE drug solution was applied to animals, and left in place for ˜12 hours. Following the ˜12 hour dosing period, patch sites was assessed by Draize scoring as in Example 5, 5×/week for 21 days. […] After the 25 day assessment period, the animals were re-challenged and a second dosing and assessment phase performed for 30 days. At the end of the survival period, animals were humanely euthanized and a complete necropsy was performed. The test article vials used to prepare patches and mini-pig exposed patches were collected after application to determine SADBE content and SADBE degradation product squaric acid monobutyl ester (SAMBE) using HPLC at Squarex's Laboratory.
Dose site was explanted, fixed, and embedded. Dose sites were examined histologically and an evaluation of cell type presence and tissue response conducted.

[3] = any dose (2%, 6%, 18% SADBE patch)

## CCCCOc1c(OCCCC)c(=O)c1=O [SADBE, squaric acid dibutyl ester]
[1]; 2.0% SADBE sensitization dose on arm, Kaplan-Meier, placebo 40 days, P=0.009
  median time to next herpes labialis outbreak after the sensitization dose: more than 122 days
[1]; 2.0% SADBE, placebo 2 patients
  adverse event: itching and redness at the sensitization site: 13 patients
[1]; exposed to the SADBE sensitization dose for 24 hours
  adverse event: autosensitization dermatitis: 1 patient
[1]; overall, patients
  tolerability: well tolerated
[1]; patients who received 2.0% SADBE for sensitization
  patients who did not experience another outbreak after sensitization: 16 of 28
[2]; 2% & 6% SADBE
  histopathology of treated skin sites: inflammatory infiltrates in the dermis: multifocal rare to mild infiltrates of inflammatory cells
[2]; 18% SADBE
  histopathology of treated skin sites: inflammatory infiltrates in the dermis: multifocal mild to heavy infiltrates of inflammatory cells
[2]; all SADBE treated sites
  histopathology: necrosis and fatty infiltration: minimal multifocal necrosis and fatty infiltration were observed
[2]; all animals, all doses
  Cervical and Inguinal lymph node sections: within normal limits
[2]; all doses
  gross necropsy: No abnormalities were noted
[2]; all sections examined
  histopathology: parakeratosis: mild to moderate parakeratosis
[2]; [3]
  effect on body weight: no significant effect
  effect on food consumption: no significant effect
[2]; any tissue sections examined
  histopathology: neovascularization and fibrosis: Neovascularization and fibrosis was not noted
